From PubChem BioAssay AID330 (DTP/NCI, 2004)
Values joined by “and” are separate entries in the source; they are usually repeats but may differ in a detail not shown here. Identical values can stand only once. Inconclusive results and toxic doses are left out. Rule for the calls: active = survival T/C of 150% or more; inactive = T/C below 125% in these data.

Tested on: P388 leukemia ip, CD2F1 mice, survival T/C
Test: NCI In Vivo Anticancer Drug Screen. Data for tumor model P388 Leukemia (intraperitoneal) in CD2F1 (CDF1) mice
Conditions: endpoint: median survival time, higher = longer survival
Procedure, shortened: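 Mice carrying the transplanted tumor received test compound or vehicle. Survival was recorded in each group, and the value is the treated-group measurement divided by that of the vehicle-treated control group.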

[1] = dose: 6.25 mg/kg/injection, schedule: Q01DX009 (ip), vehicle: saline with Tween-80
[2] = dose: 12.5 mg/kg/injection, schedule: Q01DX009 (ip), vehicle: saline with Tween-80
[3] = dose: 50.0 mg/kg/injection, schedule: Q01DX009 (ip), vehicle: saline with Tween-80
[4] = dose: 50.0 mg/kg/injection, schedule: Q01DX005 (ip), vehicle: saline with Tween-80
[5] = dose: 100.0 mg/kg/injection, schedule: Q01DX005 (ip), vehicle: saline with Tween-80
[6] = dose: 100.0 mg/kg/injection, schedule: Q01DX009 (ip), vehicle: saline with Tween-80
[7] = dose: 50.0 mg/kg/injection, schedule: Q01DX005 (ip), vehicle: Klucel (hydroxypropylcellulose) (HPC)
[8] = dose: 100.0 mg/kg/injection, schedule: Q01DX005 (ip), vehicle: Klucel (hydroxypropylcellulose) (HPC)
[9] = dose: 200.0 mg/kg/injection, schedule: Q01DX005 (ip), vehicle: Klucel (hydroxypropylcellulose) (HPC)
[10] = dose: 60.0 mg/kg/injection, schedule: Q01DX005 (ip), vehicle: saline with Tween-80
[11] = dose: 120.0 mg/kg/injection, schedule: Q01DX005 (ip), vehicle: saline with Tween-80
[12] = dose: 240.0 mg/kg/injection, schedule: Q01DX005 (ip), vehicle: saline with Tween-80

Measured: T/C

COc1cc(Cl)c(CC(=O)c2c[nH]c3ccccc23)cc1OC
inactive: [1] 94 % of control | [2] 92 % of control | dose: 25.0 mg/kg/injection, schedule: Q01DX009 (ip), vehicle: saline with Tween-80 100 % of control | [3] 93 % of control

CC(=O)SC1(C(C(N)=S)c2ccccc2)CCN(C)CC1 (stereo not given)
inactive: dose: 50.0 mg/kg/injection, schedule: Q01DX005 (ip), vehicle: saline 105 % of control | dose: 100.0 mg/kg/injection, schedule: Q01DX005 (ip), vehicle: saline 111 % of control | dose: 200.0 mg/kg/injection, schedule: Q01DX005 (ip), vehicle: saline 101 % of control

COc1ccc(Cl)c2c1[nH]c1nc3nc4cc(Cl)ccc4n3nc12
inactive: dose: 12.5 mg/kg/injection, schedule: Q01DX005 (ip), vehicle: saline with Tween-80 90 % of control | dose: 25.0 mg/kg/injection, schedule: Q01DX005 (ip), vehicle: saline with Tween-80 94 % of control | [4] 101 % of control and 105 % of control | [5] 105 % of control | dose: 200.0 mg/kg/injection, schedule: Q01DX005 (ip), vehicle: saline with Tween-80 111 % of control

CN1C(=O)C23CCCN2C(=O)C1(C)SC(=N)S3 (stereo not given)
inactive: dose: 25.0 mg/kg/injection, schedule: Q04DX003 (ip), vehicle: suspension in saline 101 % of control | dose: 50.0 mg/kg/injection, schedule: Q04DX003 (ip), vehicle: suspension in saline 95 % of control | dose: 100.0 mg/kg/injection, schedule: Q04DX003 (ip), vehicle: suspension in saline 95 % of control

CC(C)C(C(=O)CCN(C)C)c1ccc(Cl)cc1 (stereo not given)
inactive: [4] 116 % of control | [5] 100 % of control

CC1(C)CC2=NO[Se]3=C2C(=NO3)C1
inactive: dose: 1.56 mg/kg/injection, schedule: Q01DX009 (ip), vehicle: saline with Tween-80 104 % of control | dose: 3.12 mg/kg/injection, schedule: Q01DX009 (ip), vehicle: saline with Tween-80 102 % of control | [1] 104 % of control and 111 % of control | [2] 117 % of control

O=[N+]([O-])c1cccc2c(-c3nccc4c([N+](=O)[O-])cccc34)nccc12
inactive: [4] 87 % of control | [5] 87 % of control

COc1ccc(C/C(N)=N\O)cc1
inactive: dose: 50.0 mg/kg/injection, schedule: Q01DX009 (ip), vehicle: Klucel (hydroxypropylcellulose) (HPC) 108 % of control | dose: 100.0 mg/kg/injection, schedule: Q01DX009 (ip), vehicle: Klucel (hydroxypropylcellulose) (HPC) 106 % of control | dose: 200.0 mg/kg/injection, schedule: Q01DX009 (ip), vehicle: Klucel (hydroxypropylcellulose) (HPC) 117 % of control

CC(=O)N1CCN(c2ccc(OCC3COC(Cn4ccnc4)(c4ccc(Cl)cc4Cl)O3)cc2)CC1 (stereo not given)
inactive: [3] 88 % of control | [6] 87 % of control

COC(=O)C1c2ccc(OC)c(OC)c2C(=O)N2CCc3cc(OC)c(OC)cc3C12 (stereo not given)
inactive: dose: 50.0 mg/kg/injection, schedule: Q04DX003 (ip), vehicle: distilled water + Tween-80 93 % of control | dose: 100.0 mg/kg/injection, schedule: Q04DX003 (ip), vehicle: distilled water + Tween-80 96 % of control | dose: 200.0 mg/kg/injection, schedule: Q04DX003 (ip), vehicle: distilled water + Tween-80 87 % of control | dose: 400.0 mg/kg/injection, schedule: Q04DX003 (ip), vehicle: distilled water + Tween-80 110 % of control

CC(NC(=O)C(CO)NC(=O)OCc1ccccc1)C(=O)O (stereo not given)
inactive: [7] 118 % of control | [8] 97 % of control | [9] 108 % of control

CCCCCCCCCSCC
inactive: [3] 100 % of control | [6] 109 % of control | dose: 100.0 mg/kg/injection, schedule: Q04DX003 (ip), vehicle: saline with Tween-80 109 % of control | dose: 200.0 mg/kg/injection, schedule: Q01DX009 (ip), vehicle: saline with Tween-80 109 % of control | dose: 200.0 mg/kg/injection, schedule: Q04DX003 (ip), vehicle: saline with Tween-80 100 % of control | dose: 400.0 mg/kg/injection, schedule: Q04DX003 (ip), vehicle: saline with Tween-80 86 % of control

C=CCn1cc(F)c(=O)[nH]c1=O
inactive: dose: 30.0 mg/kg/injection, schedule: Q04DX002 (ip), vehicle: saline 97 % of control | dose: 60.0 mg/kg/injection, schedule: Q04DX002 (ip), vehicle: saline 100 % of control | dose: 120.0 mg/kg/injection, schedule: Q04DX002 (ip), vehicle: saline 104 % of control | dose: 150.0 mg/kg/injection, schedule: Q04DX002 (ip), vehicle: saline 100 % of control | dose: 240.0 mg/kg/injection, schedule: Q04DX002 (ip), vehicle: saline 99 % of control | dose: 300.0 mg/kg/injection, schedule: Q04DX002 (ip), vehicle: saline 98 % of control | dose: 600.0 mg/kg/injection, schedule: Q04DX002 (ip), vehicle: saline 106 % of control

CSc1ccnc2ccccc12
inactive: dose: 12.5 mg/kg/injection, schedule: Q01DX009 (ip), vehicle: other 103 % of control | dose: 25.0 mg/kg/injection, schedule: Q01DX009 (ip), vehicle: other 118 % of control | dose: 50.0 mg/kg/injection, schedule: Q01DX009 (ip), vehicle: other 114 % of control

O=C(O)c1sc(-c2ccccc2)c2c1-c1ccccc1C2=O
inactive: dose: 60.0 mg/kg/injection, schedule: Q01DX005 (ip), vehicle: Klucel (hydroxypropylcellulose) (HPC) 98 % of control | dose: 120.0 mg/kg/injection, schedule: Q01DX005 (ip), vehicle: Klucel (hydroxypropylcellulose) (HPC) 96 % of control | dose: 240.0 mg/kg/injection, schedule: Q01DX005 (ip), vehicle: Klucel (hydroxypropylcellulose) (HPC) 97 % of control

[O-][N+](O)=C1c2ccccc2-c2ccccc21
inactive: dose: 100.0 mg/kg/injection, schedule: Q04DX003 (ip), vehicle: saline 100 % of control | dose: 200.0 mg/kg/injection, schedule: Q04DX003 (ip), vehicle: saline 103 % of control | dose: 400.0 mg/kg/injection, schedule: Q04DX003 (ip), vehicle: saline 102 % of control

COc1ccc2c(c1)CN(C)c1ccc(OC)cc1CN2C
inactive: [10] 100 % of control | [11] 104 % of control | [12] 100 % of control

O=C(CC(=O)c1ccc(Cl)s1)C(=O)NC1C2CC3CC(C2)CC1C3 (stereo not given)
inactive: dose: 7.5 mg/kg/injection, schedule: Q01DX005 (ip), vehicle: saline with Tween-80 100 % of control | dose: 15.0 mg/kg/injection, schedule: Q01DX005 (ip), vehicle: saline with Tween-80 102 % of control | dose: 30.0 mg/kg/injection, schedule: Q01DX005 (ip), vehicle: saline with Tween-80 100 % of control | [10] 94 % of control and 95 % of control

Nc1ccccc1C(=O)CC1OC(=O)c2ccccc21 (stereo not given)
inactive: [10] 105 % of control | [11] 105 % of control | [12] 97 % of control

CC1=C(Cl)CC(/C(C)=C/Cl)OC1(O)CBr (stereo not given)
inactive: dose: 0.1 mg/kg/injection, schedule: Q01DX009 (ip), vehicle: Klucel (hydroxypropylcellulose) (HPC) 100 % of control | dose: 0.2 mg/kg/injection, schedule: Q01DX009 (ip), vehicle: Klucel (hydroxypropylcellulose) (HPC) 100 % of control | dose: 0.38 mg/kg/injection, schedule: Q01DX009 (ip), vehicle: Klucel (hydroxypropylcellulose) (HPC) 95 % of control | dose: 0.4 mg/kg/injection, schedule: Q01DX009 (ip), vehicle: Klucel (hydroxypropylcellulose) (HPC) 97 % of control

Cc1ccc(OP(=O)(Oc2ccc(C)cc2)Oc2ccc(C)cc2)cc1.Cc1ccc(OP(=O)(Oc2ccc(C)cc2)Oc2ccc(C)cc2)cc1.Cc1ccc(OP(=O)(Oc2ccc(C)cc2)Oc2ccc(C)cc2)cc1.Cc1ccc(OP(=O)(Oc2ccc(C)cc2)Oc2ccc(C)cc2)cc1.[Fe+2].[O-][Cl+3]([O-])([O-])O
inactive: dose: 50.0 mg/kg/injection, schedule: Q01DX001 (ip), vehicle: Klucel (hydroxypropylcellulose) (HPC) 99 % of control | dose: 100.0 mg/kg/injection, schedule: Q01DX001 (ip), vehicle: Klucel (hydroxypropylcellulose) (HPC) 96 % of control | dose: 200.0 mg/kg/injection, schedule: Q01DX001 (ip), vehicle: Klucel (hydroxypropylcellulose) (HPC) 99 % of control

COC(=O)C(CSC1CCCCC1=O)NC(C)=O (stereo not given)
inactive: dose: 25.0 mg/kg/injection, schedule: Q01DX005 (ip), vehicle: Klucel (hydroxypropylcellulose) (HPC) 93 % of control | [7] 95 % of control | [8] 101 % of control

COP(=O)(OC)O[Si](C)(C)CC[Si](C)(C)Cl
inactive: [7] 105 % of control | [8] 105 % of control | [9] 99 % of control
